Data set [1] deals with T1, Cytochrome P450 2C9 (Homo sapiens, UniProt P11712). Description: Inhibition of recombinant human CYP2C9 expressed in HEK293 cells using 3-cyano-7-ethoxycoumarin as substrate pretreated for 30 mins followed by substrate addition measured for 60 mins by fluorescence assay. Format: ADME.
The target of data set [2] is T2, Aryl hydrocarbon receptor (Homo sapiens, UniProt P35869).
T2 sequence (P35869 whole entry): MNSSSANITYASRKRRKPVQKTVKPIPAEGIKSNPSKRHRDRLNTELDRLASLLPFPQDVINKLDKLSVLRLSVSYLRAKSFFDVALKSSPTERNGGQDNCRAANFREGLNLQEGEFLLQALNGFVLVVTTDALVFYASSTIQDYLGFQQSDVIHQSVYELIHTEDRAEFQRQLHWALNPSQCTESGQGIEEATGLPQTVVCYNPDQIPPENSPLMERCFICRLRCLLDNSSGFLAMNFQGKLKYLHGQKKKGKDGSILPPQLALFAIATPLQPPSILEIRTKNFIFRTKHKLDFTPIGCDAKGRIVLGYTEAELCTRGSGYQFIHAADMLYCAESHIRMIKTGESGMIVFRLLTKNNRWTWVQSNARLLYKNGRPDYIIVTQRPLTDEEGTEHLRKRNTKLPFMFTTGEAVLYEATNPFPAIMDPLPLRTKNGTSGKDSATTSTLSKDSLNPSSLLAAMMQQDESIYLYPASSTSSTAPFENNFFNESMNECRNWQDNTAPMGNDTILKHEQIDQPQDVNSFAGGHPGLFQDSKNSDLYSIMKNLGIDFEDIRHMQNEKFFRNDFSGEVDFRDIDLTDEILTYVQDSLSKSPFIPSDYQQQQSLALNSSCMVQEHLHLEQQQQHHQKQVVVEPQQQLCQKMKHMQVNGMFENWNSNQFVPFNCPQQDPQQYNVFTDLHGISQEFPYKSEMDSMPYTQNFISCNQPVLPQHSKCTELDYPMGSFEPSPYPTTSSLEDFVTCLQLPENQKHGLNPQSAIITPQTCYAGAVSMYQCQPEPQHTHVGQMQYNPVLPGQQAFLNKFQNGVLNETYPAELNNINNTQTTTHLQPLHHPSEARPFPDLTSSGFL
Description: Antagonist activity at recombinant human eGFP-fused Ahr expressed in yeast cells co-expressing ARNT assessed as inhibition of benzo(a)pyrene-induced Ahr activation at 1 uM measured after 18 hrs by fluorescence assay. It is filed as cell-based.

For data set [3], the target named is T1, Cytochrome P450 2C9. The experiment in a line: Inhibition of human CYP2C9 expressed in yeast microsomal membranes using 3-cyano-7-ethoxycoumarin as substrate measured after 10 mins by fluorescence assay. It is filed as ADME, cell membranes, Microsomal Membrane.
Data set [4] addresses T3, Cytochrome P450 2C19 (Homo sapiens, UniProt P33261). The experiment in a line: Inhibition of human CYP2C19 expressed in yeast microsomal membranes using 3-cyano-7-ethoxycoumarin as substrate measured after 10 mins by fluorescence assay. Format: ADME, cell membranes, Microsomal Membrane.
The target of data set [5] is T4, Cytochrome P450 2D6 (Homo sapiens, UniProt P10635). The experiment in a line: Inhibition of recombinant human CYP2D6 expressed in HEK293 cells using 7-ethoxy-methyloxy-3-cyanocoumarin as substrate pretreated for 30 mins followed by substrate addition measured for 60 mins by fluorescence assay. It is filed as ADME, cell-based.
The target of data set [6] is T4, Cytochrome P450 2D6. The experiment in a line: Inhibition of human CYP2D6 expressed in yeast microsomal membranes using 7-ethoxy-methyloxy-3-cyanocoumarin as substrate measured after 10 mins by fluorescence assay. It is filed as ADME, cell membranes, Microsomal Membrane.
Data set [7] addresses T5, Cytochrome P450 1B1 (Homo sapiens, UniProt Q16678).
T5 sequence (Q16678 whole entry): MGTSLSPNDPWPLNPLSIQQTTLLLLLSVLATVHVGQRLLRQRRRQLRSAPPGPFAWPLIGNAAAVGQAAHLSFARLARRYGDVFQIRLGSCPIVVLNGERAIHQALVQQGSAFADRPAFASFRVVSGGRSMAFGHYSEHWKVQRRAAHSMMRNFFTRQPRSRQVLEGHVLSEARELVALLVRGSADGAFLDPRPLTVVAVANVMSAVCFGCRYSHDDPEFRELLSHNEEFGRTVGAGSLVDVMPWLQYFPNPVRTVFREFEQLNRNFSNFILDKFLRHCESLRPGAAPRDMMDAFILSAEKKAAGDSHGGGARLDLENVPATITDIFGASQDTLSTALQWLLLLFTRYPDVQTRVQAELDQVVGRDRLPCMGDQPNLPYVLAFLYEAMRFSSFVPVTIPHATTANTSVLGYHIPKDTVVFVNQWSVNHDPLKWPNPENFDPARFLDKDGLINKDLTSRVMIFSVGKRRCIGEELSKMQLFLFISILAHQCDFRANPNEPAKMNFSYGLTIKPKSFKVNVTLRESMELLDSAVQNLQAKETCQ
Description: Inhibition of human CYP1B1 expressed in yeast microsomal membranes using 7-ethoxyresorufin as substrate measured after 10 mins by fluorescence assay. It is filed as cell membranes.

In data set [8] the target is T6, Cytochrome P450 1A2 (Homo sapiens, UniProt P05177).
T6 sequence (P05177 whole entry): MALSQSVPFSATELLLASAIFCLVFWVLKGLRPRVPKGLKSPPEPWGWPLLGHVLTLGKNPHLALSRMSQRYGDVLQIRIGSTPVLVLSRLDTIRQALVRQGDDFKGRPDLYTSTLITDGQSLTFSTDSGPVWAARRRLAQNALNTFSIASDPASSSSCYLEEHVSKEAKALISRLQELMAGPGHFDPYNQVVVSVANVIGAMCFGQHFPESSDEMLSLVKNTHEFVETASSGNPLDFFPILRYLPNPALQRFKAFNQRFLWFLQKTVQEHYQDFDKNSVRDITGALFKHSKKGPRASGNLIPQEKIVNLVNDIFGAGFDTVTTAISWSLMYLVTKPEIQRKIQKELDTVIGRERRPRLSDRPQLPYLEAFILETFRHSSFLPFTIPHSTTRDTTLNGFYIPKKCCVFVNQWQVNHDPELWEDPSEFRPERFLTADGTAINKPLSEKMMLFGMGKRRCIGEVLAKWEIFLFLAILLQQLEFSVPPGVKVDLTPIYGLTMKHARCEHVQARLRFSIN
Description: Inhibition of recombinant human CYP1A2 expressed in HEK293 cells using 3-cyano-7-ethoxycoumarin as substrate pretreated for 30 mins followed by substrate addition measured for 60 mins by fluorescence assay. It is filed as ADME.

Data set [9] has as its target T3, Cytochrome P450 2C19. The experiment in a line: Inhibition of recombinant human CYP2C19 expressed in HEK293 cells using 3-cyano-7-ethoxycoumarin as substrate pretreated for 30 mins followed by substrate addition measured for 60 mins by fluorescence assay. It is filed as ADME.
Data set [10] deals with T7, Cytochrome P450 1A1 (Homo sapiens, UniProt P04798).
T7 sequence (P04798 whole entry): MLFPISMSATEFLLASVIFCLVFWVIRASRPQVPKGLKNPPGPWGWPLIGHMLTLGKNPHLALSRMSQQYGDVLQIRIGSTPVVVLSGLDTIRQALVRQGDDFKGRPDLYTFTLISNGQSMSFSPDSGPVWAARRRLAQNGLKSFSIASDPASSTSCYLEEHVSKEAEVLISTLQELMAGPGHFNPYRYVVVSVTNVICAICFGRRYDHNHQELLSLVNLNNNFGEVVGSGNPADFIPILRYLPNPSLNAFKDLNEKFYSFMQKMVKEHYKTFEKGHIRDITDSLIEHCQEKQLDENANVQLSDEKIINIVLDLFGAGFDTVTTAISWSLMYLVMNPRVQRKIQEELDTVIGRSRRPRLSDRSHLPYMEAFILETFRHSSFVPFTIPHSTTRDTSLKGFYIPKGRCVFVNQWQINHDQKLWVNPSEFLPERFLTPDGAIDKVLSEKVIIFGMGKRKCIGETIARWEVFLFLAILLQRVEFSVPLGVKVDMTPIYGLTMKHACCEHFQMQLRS
The experiment in a line: Inhibition of recombinant human CYP1A1 expressed in HEK293 cells using 7-ethoxyresorufin as substrate pretreated for 30 mins followed by substrate addition measured for 60 mins by fluorescence assay. It is filed as cell-based.

Data set [11] deals with T6, Cytochrome P450 1A2. The experiment in a line: Inhibition of human CYP1A2 expressed in yeast microsomal membranes using 3-cyano-7-ethoxycoumarin as substrate measured after 10 mins by fluorescence assay. It is filed as ADME, cell membranes, Microsomal Membrane.
Data set [12] deals with T5, Cytochrome P450 1B1. Description: Inhibition of recombinant human CYP1B1 expressed in HEK293 cells using 7-ethoxyresorufin as substrate pretreated for 30 mins followed by substrate addition measured for 60 mins by fluorescence assay. Format: cell-based.
The target of data set [13] is T7, Cytochrome P450 1A1. The experiment in a line: Inhibition of human CYP1A1 expressed in yeast microsomal membranes using 7-ethoxyresorufin as substrate measured after 10 mins by fluorescence assay. It is filed as cell membranes.
The target in data set [14] is T8, Cytochrome P450 3A4 (Homo sapiens, UniProt P08684). The experiment in a line: Inhibition of recombinant human CYP3A4 expressed in HEK293 cells using dibenzylfluorescein as substrate pretreated for 30 mins followed by substrate addition measured for 60 mins by fluorescence assay. It is filed as ADME.
In data set [15] the target is T8, Cytochrome P450 3A4. The experiment in a line: Inhibition of human CYP3A4 expressed in yeast microsomal membranes using dibenzylfluorescein as substrate measured after 10 mins by fluorescence assay. It is filed as ADME, cell membranes, Microsomal Membrane.
The species entered for data set [16] is Homo sapiens. The experiment in a line: Selectivity ratio of IC50 for recombinant human CYP1A2 expressed in HEK293 cells to IC50 for recombinant human CYP1A1 expressed in HEK293 cells. It is filed as cell-based.
The species entered for data set [17] is Homo sapiens. Description: Selectivity ratio of IC50 for recombinant human CYP1B1 expressed in HEK293 cells to IC50 for recombinant human CYP1A1 expressed in HEK293 cells. Format: cell-based.
In data set [18] the target is T5, Cytochrome P450 1B1. The experiment in a line: Inhibition of recombinant human CYP1B1 expressed in HEK293 cells assessed as potentiation of cisplatin-induced cytotoxicity by measuring reduction in cisplatin EC50 by MTT assay. It is filed as cell-based. On the technique in general: Tetrazolium assays rely on reduction of a dye to a coloured formazan, in cell work by metabolically active cells.

Data set [19] concerns the target T7, Cytochrome P450 1A1. The experiment in a line: Inhibition of recombinant human CYP1A1 expressed in HEK293 cells assessed as reduction in benzo(a)pyrene-induced toxicity by measuring increase in B[a]P EC50 at 2 times IC50 by MTT assay. Format: cell-based.

pIC50: −log10 of the molar value.

T8 sequence (P08684 whole entry): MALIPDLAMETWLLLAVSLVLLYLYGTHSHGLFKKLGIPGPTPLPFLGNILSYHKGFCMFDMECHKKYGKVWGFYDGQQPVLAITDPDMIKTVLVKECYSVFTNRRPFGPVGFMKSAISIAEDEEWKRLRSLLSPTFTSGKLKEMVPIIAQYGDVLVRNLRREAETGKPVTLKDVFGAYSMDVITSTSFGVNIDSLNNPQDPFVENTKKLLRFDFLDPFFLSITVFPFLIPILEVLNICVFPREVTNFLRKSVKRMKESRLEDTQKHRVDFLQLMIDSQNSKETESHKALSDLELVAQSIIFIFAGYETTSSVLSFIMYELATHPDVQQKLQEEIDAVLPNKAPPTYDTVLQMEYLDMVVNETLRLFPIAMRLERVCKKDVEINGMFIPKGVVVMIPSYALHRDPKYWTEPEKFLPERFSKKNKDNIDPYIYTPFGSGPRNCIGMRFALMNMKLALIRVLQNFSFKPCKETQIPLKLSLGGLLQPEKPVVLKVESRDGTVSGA
T1 sequence (P11712 whole entry): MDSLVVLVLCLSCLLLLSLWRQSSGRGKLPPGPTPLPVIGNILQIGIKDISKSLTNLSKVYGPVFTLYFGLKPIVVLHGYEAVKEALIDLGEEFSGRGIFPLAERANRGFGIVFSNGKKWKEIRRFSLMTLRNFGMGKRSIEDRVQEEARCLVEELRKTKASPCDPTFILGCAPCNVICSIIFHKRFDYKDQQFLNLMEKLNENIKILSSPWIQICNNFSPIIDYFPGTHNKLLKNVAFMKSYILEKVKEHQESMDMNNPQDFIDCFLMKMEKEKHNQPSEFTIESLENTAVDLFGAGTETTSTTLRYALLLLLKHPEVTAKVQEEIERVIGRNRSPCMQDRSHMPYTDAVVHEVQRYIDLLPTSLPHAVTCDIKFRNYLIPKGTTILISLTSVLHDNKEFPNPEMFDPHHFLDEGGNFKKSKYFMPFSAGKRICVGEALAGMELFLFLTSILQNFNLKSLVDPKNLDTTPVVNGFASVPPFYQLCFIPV
T4 sequence (P10635 whole entry): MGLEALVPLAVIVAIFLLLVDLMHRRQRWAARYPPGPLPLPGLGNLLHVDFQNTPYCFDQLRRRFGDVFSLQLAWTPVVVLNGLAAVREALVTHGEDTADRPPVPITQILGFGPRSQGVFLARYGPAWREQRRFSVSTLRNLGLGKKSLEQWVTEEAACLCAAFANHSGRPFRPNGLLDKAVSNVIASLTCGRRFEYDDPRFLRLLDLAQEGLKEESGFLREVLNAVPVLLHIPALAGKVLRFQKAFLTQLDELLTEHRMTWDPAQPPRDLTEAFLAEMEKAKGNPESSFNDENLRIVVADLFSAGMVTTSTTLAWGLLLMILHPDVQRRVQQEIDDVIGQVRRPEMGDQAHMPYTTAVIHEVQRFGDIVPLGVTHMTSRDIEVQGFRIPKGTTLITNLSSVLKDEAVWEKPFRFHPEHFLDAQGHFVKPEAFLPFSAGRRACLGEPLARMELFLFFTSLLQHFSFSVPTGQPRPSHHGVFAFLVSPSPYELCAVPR
T3 sequence (P33261 whole entry): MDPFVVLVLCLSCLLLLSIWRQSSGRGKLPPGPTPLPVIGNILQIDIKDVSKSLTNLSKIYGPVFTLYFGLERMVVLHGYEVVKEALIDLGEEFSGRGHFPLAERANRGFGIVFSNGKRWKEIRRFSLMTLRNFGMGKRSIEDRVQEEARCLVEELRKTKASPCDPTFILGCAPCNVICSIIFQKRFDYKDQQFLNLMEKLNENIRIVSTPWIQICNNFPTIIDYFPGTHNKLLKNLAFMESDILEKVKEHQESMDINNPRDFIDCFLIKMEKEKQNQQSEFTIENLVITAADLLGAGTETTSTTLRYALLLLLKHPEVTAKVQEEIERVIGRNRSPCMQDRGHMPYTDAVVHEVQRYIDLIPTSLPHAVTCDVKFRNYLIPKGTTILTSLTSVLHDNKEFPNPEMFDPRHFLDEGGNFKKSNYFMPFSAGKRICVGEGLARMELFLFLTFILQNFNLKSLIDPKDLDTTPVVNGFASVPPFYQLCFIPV

In general, pIC50 refers to the IC50 on a negative log10 scale, so that one unit is a factor of ten. Turning to `COc1ccc(/C=C/C(=O)c2ccncc2)c(OC)c1OC`, the pIC50 was less than 5.00 at Cytochrome P450 2C9 [1]; less than 4.70 against Cytochrome P450 2C9 [3]; less than 4.70 against Cytochrome P450 2C19 [4]; less than 5.00 on Cytochrome P450 2D6 [5]; 4.96 against Cytochrome P450 2D6 [6]; 7.49 against Cytochrome P450 1B1 [7]. In addition, the pIC50 was 6.70 on Cytochrome P450 1A2 [8]; less than 5.00 at Cytochrome P450 2C19 [9]; 5.88 on Cytochrome P450 1A1 [10]; 6.98 on Cytochrome P450 1A2 [11]; 7.66 at Cytochrome P450 1B1 [12]; 5.85 against Cytochrome P450 1A1 [13]. Moreover, the values for the pIC50 at Cytochrome P450 3A4 [14] and on Cytochrome P450 3A4 [15] were less than 5.00 and less than 4.70, respectively. Moreover, the “inhibition (INH)” value in data set [2] was “Active”.
For `CCOc1cc(/C=C/C(=O)c2ccncc2)cc(OC)c1OCC`, the pIC50 at Cytochrome P450 2C9 [1] is less than 5.00; against Cytochrome P450 2C9 [3], less than 4.70; on Cytochrome P450 2C19 [4] it was less than 4.70; at Cytochrome P450 2D6 [5], less than 5.00; against Cytochrome P450 2D6 [6] it was 4.82; against Cytochrome P450 1B1 [7], 5.53. The pIC50 is 6.09 at Cytochrome P450 1A2 [8]; less than 5.00 at Cytochrome P450 2C19 [9]; 7.19 at Cytochrome P450 1A1 [10]; 6.11 at Cytochrome P450 1A2 [11]; 5.51 on Cytochrome P450 1B1 [12]; 7.19 at Cytochrome P450 1A1 [13]. Also, the pIC50 on Cytochrome P450 3A4 [14] is less than 5.00; against Cytochrome P450 3A4 [15] it was less than 4.70. For the same compound, the “inhibition (INH)” value in [2] was “Active”. For the same compound, the Ratio IC50 in the data set filed under Homo sapiens [16] and in the data set filed under Homo sapiens [17] was less than 10 each time.
`O=c1cc(-c2ccccc2)oc2c1ccc1ccccc12` [ALPHA-NAPHTHOFLAVONE]: the “inhibition (INH)” value on Cytochrome P450 1B1 [18] and at Cytochrome P450 1A1 [19] was “Active” each time.

Source of the values: ChEMBL document CHEMBL4177690, “(E)-3-(3,4,5-Trimethoxyphenyl)-1-(pyridin-4-yl)prop-2-en-1-one, a heterocyclic chalcone is a potent and selective CYP1A1 inhibitor and cancer chemopreventive agent” (Bioorg Med Chem Lett, 2017).
